# Like-named read-outs stand apart in the source and are kept apart here.
# Columns and labels:
# [1] = target: W9 probe (isolated 9 bp AT-tract); assay: DNase I footprinting on W9 probe; type: binding; conditions: for Kd: apparent dissociation constant, read-out: Kdapp W9
# Text: To target AT-tracts, the principal component of satellite I, III and SARs), a pyrrole pentamer was synthesized by facile solid phase chemistry in which five pyrrole (Py) aromatic amino acid rings are linked covalently by amide bonds (Baird and Dervan, 1996). The resulting compound, termed P7 had the sequence Py-Py-Py-Py-Py-β-Dp (where β=β-alanine and Dp=dimethylaminopropylamide). This compound is expected to bind 7 successive A or T base pairs (Ws) according to the n+1 rule where n is the number of amides (Youngquist and Dervan, 1985). The DNA binding properties of P7 were assessed by DNAse I footprinting experiments using a synthetic probe containing isolated, repeated AT-tracts of 9 Ws (W9, FIG. 2A). By visual inspection, the apparent dissociation constant (Kapp) for P7 was estimated to be approximately 80 nM (Table 3).
# were hybridized to obtain the W9 probe, oligomerized by ligation and digested with BamHl and BglII to obtain different tandem repeats. The following oligonucleotides were prepared identically:
# (§1) Fragments were purified on low-melt agarose gels and then cloned into a modified pSP64 vector, cut by BamHI and BglII. End-labeling was carried out following digestion with HindIII and a fill-in reaction with Klenow DNA polymerase. The labeled plasmid was cut with PvuII and the target fragments purified from low-melting agarose gels. The 657 bp EcoRl/Hinf1 fragment of the Drosophila histone SAR was cloned into the SmaI site of the modified pSP64 plasmid. This SAR probe was end-labeled following digestion with EcoRl, then cut with ClaI and the resulting 347 bp fragment purified from low-melting agarose gels.
# (§2) All reactions were performed in a total volume of 40 μl. A polyamide stock solution or buffer (for reference lanes) was added to an assay buffer containing 20 kcpm radiolabeled DNA, affording final concentrations of 10 mM Tris-HCl (pH 7.4), 10 mM KCl, 10 mM MgCl, 5 mM CaCl2, 0.5 mM EDTA, 0.5 mM EGTA, 1 mM DTT and 0.1% digitonine. The solutions were allowed to equilibrate for at least 2 h at room temperature. Footprinting reactions were initiated by the addition of 2 μl of a DNase stock solution (containing −100 pg DNase I in buffer) and allowed to proceed for 2 min at room temperature. The reactions were stopped by addition of 10 μl of a solution containing 1.25 M NaCl, 100 mM EDTA. Next, 5 μl of a 1% SDS solution was added, followed by 2 μl of a solution containing 1 μg poly(dA-dT), 1 μg salmon sperm DNA and 10 μg glycogen and the DNA was ethanol precipitated (20 min at −20° C.). The reactions were resuspended in 4 μl of 80% formamide loading buffer, denatured 10 min at 85° C., cooled on ice and electrophoresed on 8% polyacrylamide denaturing gels (5% cross-link, 8 M urea) at 30 W for 1 h. The gels were dried and exposed o/n at −70° C.
# [2] = tested on: Drosophila histone SAR probe (clustered/long AT-tracts); assay: DNase I footprinting on SAR probe; type: binding; conditions: for Kd: apparent dissociation constant, SAR probe, read-out: Kdapp SAR
# Description: Since satellite I is composed of exclusively A and T bases, it constitutes an ‘ideal’ binding substrate for oligopyrroles. But to obtain SAR-specific compounds, molecules are required that preferably bind its clustered, irregularly spaced AT-tracts. Binding studies were carried out with P9, P7 and P13 on the Drosophila histone SAR probe which contains the following clustered/long AT-tracts (W15N3W17N5W16N13W8NW6 where N is any base, see also FIG. 3D). […] The ratio of these two affinities is used (KappW9/KappSAR) as an empirical measure of SAR specificity. For all compounds tested thus far, this value (referred to as SAR preference factor) was around unity (Table 3).
# as §1, §2
# [3] = tested on: Drosophila satellite III chromatin (topoisomerase II cleavage); assay: Topoisomerase II cleavage in satellite III of Kc nuclei in Xenopus egg extracts with VM26; type: biochemical
# [4] = tested on: sperm nuclei (condensation to chromatids); assay: Chromosome condensation of sperm nuclei in mitotic Xenopus egg extracts; type: biochemical; conditions: for reversal of condensation inhibition by competitor oligonucleotide: Lex10 1 μM
# Text: Mitotic Xenopus egg extracts convert added nuclei and sperm to chromatids in vitro. This chromosome condensation process requires topoisomerase II (Adachi et al., 1991), the protein complex condensin (Hirano T, 1997) and presumably other unidentified activities present in the mitotic extract. First, chromatin is remodeled and nuclei then proceed quite synchronously through a number of morphologically distinguishable steps (Hirano and Mitchison, 1991). Remodeling is morphological manifested by swelling of the nuclei which involves exchange of basic sperm-specific proteins for H2A/H2B and the incorporation of histone B4 (Dimitrov S, 1994).
# Pyrrole drugs were added to the extract together with the sperm or after the remodeling step (at 10 minutes) and the extent of condensation was determined after 120 min. At this time point, the conversion of all sperm nuclei to clusters of individual chromatids is complete in the absence of drug (FIG. 8A, control). […] Addition of this compound at 125 to 250 nM (indicated) arrested this process at the so-called early ‘ruffle’ stage (FIG. 8A). These structures retain the swollen sperm shape, but they have peripheral blebs (ruffles) and a slightly heterogeneous interior. At this drug concentration, no chromatids are seen. If the concentration of Lex10 is raised to 500 nM, we observed an even earlier arrest as evidenced by the accumulation of swollen, remodeled sperm-shaped nuclei containing a homogeneous interior and smooth periphery. […] The monomer P7 was also tested but we observed no inhibition with the pyrrole pentamer up to the highest concentration (8 μM) tested. Condensation was inhibited at a ruffle stage with a P9 concentration of 2 μM (not shown).
# In the experiment shown in FIG. 8B, Lex10 was added to the extract at a final concentration of 1 μM (several fold above the minimum inhibitory concentration) after which competitor oligonucleotides were added at different stages. Three different oligonucleotides of similar size were used: the SAR oligo contains two large clustered AT-tracts of the SAR probe (W17N5W15), the W9 oligo has a single AT tract of 9 base pairs and the GAGAA oligo harbors 5 tandem GAGAA repeats.
# Topoisomerase II inhibition and chromosome assembly were as described previously (Girard et al., 1998, Strick and Laemmli, 1995). Affinity cleavage experiments was performed as described elsewhere (Turner et al., 1997).
Molecule,Kd ([1]; W9 probe),"Ratio (KappW9/KappSAR, SAR preference factor) [2]",Kd [2],stimulation of topoisomerase II cleavage in satellite III [3],also measured
"CN(C)CCCNC(=O)CCNC(=O)c1cc(NC(=O)c2cc(NC(=O)c3cc(NC(=O)c4cc(NC(=O)c5cccn5C)cn4C)cn3C)cn2C)cn1C [Compound P7, Py-Py-Py-Py-Py-β-Dp]",~80 nM,2.3,35 nM,massively stimulated,"Kd ([1]; W9 probe, listed as P10): 80 nM; concentration inhibiting chromosome condensation (block at ruffle stage) ([4]; 120 min): > 8 µM"
"CN(C)CCCNC(=O)CCNC(=O)c1cc(NC(=O)c2cc(NC(=O)c3cc(NC(=O)CCNC(=O)c4cc(NC(=O)c5cc(NC(=O)c6cc(NC(=O)CCNC(=O)c7cc(NC(=O)c8cc(NC(=O)c9cccn9C)cn8C)cn7C)cn6C)cn5C)cn4C)cn3C)cn2C)cn1C [Compound P13, PyPyPy-β-PyPyPy-β-PyPyPy-β-Dp]",1 nM,0.8,1.25 nM,,"ligand concentration giving nearly complete protection (coating) of the W9 probe [1]: ≥ 62.5 nM; GC tolerance / AT-specificity of footprint ([1]; W9 probe, flanking mixed sequences): marked tendency to protect GC base pairs"
(Py)3-β-(Py)3-(Ao)3-(Py)5-β-Dp [Lex18],100 nM,100,1 nM,,
(Py)3-β-(Py)3-β-Dp-F* [Compound P9F],4 nM,4,1 nM,,increase of SAR specificity upon fluorescein tagging [2]: about 4 fold
F*-γ-(Py)3-β-(Py)3-β-Dp-Glu-(Ao)3-(Py)5-β-Dp [Lex10F],20 nM,20,1 nM,,reduction of binding affinity upon fluorescein tagging ([1]; versus untagged compound): only a minor reduction in affinity
F*-γ-(Py)5-β-Dp [Compound P7F],3000 nM,2.5,1200 nM,,
F*-γ-(Py)5-β-Dp-Glu-(Ao)3-(Py)5-β-Dp [Lex9F],2500 nM,25,100 nM,,
PyPyPy-β-PyPyPy-β-Dp-E-AoAoAo-PyPyPyPyPy-β-Dp [Lex10],20 nM,,0.28 nM,does not stimulate,"affinity for SAR lower than that of MATH20 [2]: approximately 100; concentration at which inhibition of topoisomerase II cleavage occurs abruptly [3]: around 600 nM; inhibition of topoisomerase II cleavage in satellite III ([3]; 1 μM): inhibits cleavage of topoisomerase II completely; concentration giving even earlier arrest (swollen, remodeled sperm-shaped nuclei) [4]: 500 nM; higher concentration than MATH20 for inhibition of condensation [4]: 80 fold; reversal of condensation inhibition by competitor oligonucleotide ([4]; 360 ng of W9 or GAGAA oligo): did not reverse the block; reversal of condensation inhibition by competitor oligonucleotide ([4]; 50 to 100 ng SAR oligo): completely reversed"
PyPyPyPyPy-β-Dp-E-AoAoAo-PyPyPyPyPy-β-Dp [Lex9],3.5 nM,2,1.75 nM,much reduced cleavage stimulation,SAR specificity factor after tagging with fluorescent label ([2]; value of the tagged derivative): 25; inhibition of condensation ([4]; 250 to 500 nM): Little inhibition

# Source: US20020169296A1, “Linked, sequence-specific DNA-binding molecules” (priority 2000, published 2002)
